Molecular target: T1, rat NaPi-2b (Rattus norvegicus, UniProt Q9JJ09)
T1 construct: expressed in transfected cells; host or cells: Xenopus oocytes injected with cRNA
T1 sequence (Q9JJ09 1-695): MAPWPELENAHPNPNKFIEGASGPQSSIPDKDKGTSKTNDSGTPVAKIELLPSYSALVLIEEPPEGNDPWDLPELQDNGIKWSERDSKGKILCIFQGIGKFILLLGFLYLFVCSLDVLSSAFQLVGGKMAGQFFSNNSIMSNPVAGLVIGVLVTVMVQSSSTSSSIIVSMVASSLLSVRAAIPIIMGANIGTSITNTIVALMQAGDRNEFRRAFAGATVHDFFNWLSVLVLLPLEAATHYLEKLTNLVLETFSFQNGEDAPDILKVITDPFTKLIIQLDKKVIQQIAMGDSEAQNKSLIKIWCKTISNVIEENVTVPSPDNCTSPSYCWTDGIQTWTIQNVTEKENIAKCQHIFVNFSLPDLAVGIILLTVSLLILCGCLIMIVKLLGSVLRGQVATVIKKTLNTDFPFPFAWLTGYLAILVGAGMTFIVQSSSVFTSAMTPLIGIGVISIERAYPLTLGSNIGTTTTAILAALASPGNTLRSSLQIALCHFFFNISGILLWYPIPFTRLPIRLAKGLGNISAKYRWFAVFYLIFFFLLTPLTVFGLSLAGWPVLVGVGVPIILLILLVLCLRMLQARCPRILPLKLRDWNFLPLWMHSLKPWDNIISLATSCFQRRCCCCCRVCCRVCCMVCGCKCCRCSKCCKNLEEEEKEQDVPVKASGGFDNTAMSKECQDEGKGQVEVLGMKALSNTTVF
Assay: Sodium-dependent phosphate uptake of Xenopus oocytes which expressed NaPi-2b (32P)
Format: cell-based
Settings: for IC50: Xenopus oocytes expressing rat NaPi-2b, 32P radioactive phosphorus, read-out: IC50 (phosphate uptake inhibitory activity)
Experimental: Pharmacological Test Example 1
Experiment of Sodium-Dependent Phosphate Uptake of Xenopus oocytes which Expressed NaPi-2b
Degenerate primers were prepared from sequences of mouse NaPi-2b disclosed in Hilfiker H. et al., Pro Natl Acad Sci USA, 95 (24): 14564-14569, […] and sequences of human and rat NaPi-2a disclosed in Magagnin S. et al., Proc Natl Aca Sci USA, 90 (13): 5979-5983, 1993. RNA was extracted from the rat small intestine using ISOGEN; manufactured by NIPPON GENE CO., LTD (Japan). 400 bp gene fragments were obtained by PCR using, as a template, a cDNA library prepared with a cDNA synthesis kit (manufactured by STRATAGENE (US)). Thereafter, the above rat small intestine cDNA library was screened using the gene fragment as a probe, and the whole gene sequence of rat NaPi-2b was cloned. cRNA was synthesized from the cloned rat NaPi-2b cDNA with a cRNA synthesis kit (manufactured by Ambion (US)). The synthesized cRNA was injected into Xenopus oocytes (obtained from COPACETIC (Japan)) with a liquid microinjector (manufactured by Drummond (US)) and was cultured for 2 days to express rat NaPi-2b. Thereafter, for a group of derivatives, phosphate uptake inhibitory activity were measured using the Xenopus oocytes with ^32P radioactive phosphorus (manufactured by Daiichi Kagaku Inc. (Japan)). […] The inhibitory activity for 300 μM and 100 μM was determined from the same inhibition curve and expressed in percentage inhibition (%) in Table 5.

IC50 | inhibition at 300 µM (phosphate uptake, oocytes expressing rat NaPi-2b, 300 μM, determined from inhibition curve) | SMILES
 | 42% | O=C(Nc1ccc(Cl)cc1C(=O)N/N=C/c1ccc(F)cc1)c1cccc(CSCCS(=O)(=O)O)c1 [Compound 708, 2-{3-[4-Chloro-2-(4-fluoro-benzylidene-hydrazinocarbonyl)-phenylcarbamoyl]-benzylsulfanyl}-ethanesulfonic acid]
7.94 µM |  | CN(C)CCn1nnnc1SCc1cccc(C(=O)Nc2ccc(Cl)cc2C(=O)N/N=C/c2ccc(Cl)c(C(F)(F)F)c2)c1 [Compound 467, N-[4-Chloro-2-(4-chloro-3-trifluoromethyl-benzylidene-hydrazinocarbonyl)-phenyl]-3-[1-(2-dimethylamino-ethyl)-1H-tetrazol-5-ylsulfanylmethyl]-benzamide]
5.94 µM |  | Cc1ccc(/C=N/NC(=O)c2ccccc2NC(=O)c2ccc(F)cc2)cc1C [Compound 96, N-[2-(3,4-Dimethyl-benzylidene-hydrazinocarbonyl)-phenyl]-4-fluoro-benzamide]
79.9 µM |  | COc1ccccc1/C=N/NC(=O)c1ccccc1NC(=O)c1ccc(OC)c(OC)c1 [Compound 4, 3,4-Dimethoxy-N-[2-(2-methoxy-benzylidene-hydrazinocarbonyl)-phenyl]-benzamide]
9.59 µM |  | CC(O)CN(Cc1ccc(C(=O)Nc2ccc(Br)cc2C(=O)N/N=C/c2ccc(F)cc2)cc1)CC(C)O (stereo not shown) [Compound 719, 4-{[Bis-(2-hydroxy-propyl)-amino]-methyl}-N-[4-bromo-2-(4-fluoro-benzylidene-hydrazinocarbonyl)-phenyl]-benzamide]
0.69 µM |  | COc1cccc(/C=N/NC(=O)c2cc(Cl)ccc2NC(=O)c2cccc(CN(CCO)CCO)c2)c1 [Compound 408, 3-{[Bis-(2-hydroxy-ethyl)-amino]-methyl}-N-[4-chloro-2-(3-methoxy-benzylidene-hydrazinocarbonyl)-phenyl]-benzamide]
< 3 µM |  | CCN(CCO)Cc1cccc(C(=O)Nc2ccc(Cl)cc2C(=O)N/N=C/c2ccc(C)cc2)c1 [Compound 425, N-[4-Chloro-2-(4-methyl-benzylidene-hydrazinocarbonyl)-phenyl]-3-{[ethyl-(2-hydroxy-ethyl)-amino]-methyl}-benzamide]

The next lines start with the compound.

SMILES | IC50 | inhibition at 300 µM (phosphate uptake, oocytes expressing rat NaPi-2b, 300 μM, determined from inhibition curve)
Cc1ccc(/C=N/NC(=O)c2ccccc2NC(=O)c2cccnc2)cc1 [Compound 132, N-[2-(4-Methyl-benzylidene-hydrazinocarbonyl)-phenyl]-nicotinamide] | 0.75 µM | 
CCN(CC)CCN(Cc1cccc(C(=O)Nc2sc3c(c2C(=O)N/N=C/c2ccc(C)c(C)c2)CCCC3)c1)C(C)=O [Compound 652, 3-{[Acetyl-(2-diethylamino-ethyl)-amino]-methyl}-N-[3-(3,4-dimethyl-benzylidene-hydrazinocarbonyl)-4,5,6,7-tetrahydro-benzo[b]thiophen-2-yl]-benzamide] | 0.72 µM | 
O=C(Nc1ccc(Br)cc1C(=O)N/N=C/c1cccc(F)c1)c1ccc(CN2CCN(CC(=O)N3CCOCC3)CC2)cc1 [Compound 731, N-[4-Bromo-2-(3-fluoro-benzylidene-hydrazinocarbonyl)-phenyl]-4-[4-(2-morpholin-4-yl-2-oxo-ethyl)-piperazin-1-ylmethyl]-benzamide] | 19.2 µM | 
COc1ccc(C(=O)Nc2ccccc2C(=O)N/N=C/c2cc(C(F)(F)F)cc(C(F)(F)F)c2)cc1OC [Compound 8, N-[2-(3,5-Bis-trifluoromethyl-benzylidene-hydrazinocarbonyl)-phenyl]-3,4-dimethoxy-benzamide] | 1.72 µM | 
Cc1ccc(/C=N/NC(=O)c2cc(Br)ccc2NC(=O)c2ccc(CN3CCN(CCO)CC3)cc2)cc1C [Compound 316, N-[4-Bromo-2-(3,4-dimethyl-benzylidene-hydrazinocarbonyl)-phenyl]-4-[4-(2-hydroxy-ethyl)-piperazin-1-ylmethyl]-benzamide] | 4.71 µM | 
O=C(Nc1ccc(Br)cc1C(=O)N/N=C/c1cccc(F)c1)c1ccc(CN2CCC(N3CCCCC3)CC2)cc1 [Compound 312, 4-[1,4′]Bipiperidinyl-1′-ylmethyl-N-[4-bromo-2-(3-fluoro-benzylidene-hydrazinocarbonyl)-phenyl]-benzamide] | 3.31 µM | 
